Reference: patent US8455475B2 (Gruenenthal GmbH, priority 2009, dated 2013)

molecular target: T1, rat B1R (bradykinin receptor 1) (Rattus norvegicus, UniProt P97583); assay: FLIPR Ca2+ assay (Fluo-4) on CHO K1 cells stably transfected with the B1R gene of the rat (rB1R cells): % inhibition at 10 μM / IC50, agonist Des-Arg9-bradykinin; type: cell-based; conditions: CHO-K1, rat B1R
T1 construct: expressed in transfected cells; host or cells: CHO K1 cells
T1 sequence (P97583 1-337): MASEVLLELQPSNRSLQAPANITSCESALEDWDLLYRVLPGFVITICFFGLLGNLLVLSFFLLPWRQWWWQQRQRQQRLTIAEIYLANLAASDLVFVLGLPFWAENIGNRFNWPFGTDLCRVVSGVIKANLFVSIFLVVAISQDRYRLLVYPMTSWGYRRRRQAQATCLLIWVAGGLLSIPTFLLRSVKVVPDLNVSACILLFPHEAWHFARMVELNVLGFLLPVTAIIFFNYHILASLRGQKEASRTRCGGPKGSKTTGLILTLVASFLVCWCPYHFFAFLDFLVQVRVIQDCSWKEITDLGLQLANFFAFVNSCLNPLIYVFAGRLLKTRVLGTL
Procedure, shortened: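 Loading with Fluo-4 occurs for 60 min at 37 °C, or alternatively in buffer A, before FLIPR measurement. Compounds are applied, incubated 10–20 min, and then the EC80 agonist is added. Antagonism appears as reduced peak Ca2+ signal relative to maximal inhibition.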

Q: How did the inhibition at 10 µM turn out when `O=C(NC1CCc2ccc(C(=O)N3CCC4(CCN(Cc5ccc(F)cc5F)CC4)CC3)cc21)c1ccccc1Cl` (centres unmarked) [IND_CC-516, 2-Chloro-N-[6-[9-[(2,4-difluoro-phenyl)-methyl]-3,9-diazaspiro[5.5]undecane-3-carbonyl]-2,3-dihydro-1H-inden-1-yl]-benzamide] was run?
A: 102%

Q: For `COc1cccc(F)c1CN1CCC2(CC1)CCN(C(=O)c1ccc3c(c1)C(NC(=O)c1ccccc1Cl)CC3)CC2` (centres unmarked) [IND_CC-517, 2-Chloro-N-[6-[9-[(2-fluoro-6-methoxy-phenyl)-methyl]-3,9-diazaspiro[5.5]undecane-3-carbonyl]-2,3-dihydro-1H-inden-1-yl]-benzamide], which inhibition at 10 µM is on record?
A: 90%

Q: Which inhibition at 10 µM does the source give for `O=C(c1ccc2c(c1)C(N(C(=O)c1ccccc1Cl)C1CC1)CC2)N1CCC2(CCN(Cc3cccnc3)CC2)C1` (centres unmarked) [IND_CC-518, 2-Chloro-N-cyclopropyl-N-[6-[8-(pyridin-3-yl-methyl)-2,8-diazaspiro[4.5]decane-2-carbonyl]-2,3-dihydro-1H-inden-1-yl]-benzamide] here?
A: 86%

Q: With `Cn1cccc1CN1CCC2(CC1)CCN(C(=O)c1ccc3c(c1)C(N(C(=O)c1ccccc1Cl)C1CC1)CC3)C2` (centres unmarked) [IND_CC-519, 2-Chloro-N-cyclopropyl-N-[6-[8-[(1-methyl-1H-pyrrol-2-yl)-methyl]-2,8-diazaspiro[4.5]decane-2-carbonyl]-2,3-dihydro-1H-inden-1-yl]-benzamide] as the molecule, how does the inhibition at 10 µM read?
A: 53%

Q: For `O=C(c1ccc2c(c1)C(N(C(=O)c1ccccc1Cl)C1CC1)CC2)N1CCC2(CCN(Cc3c(F)cccc3F)CC2)C1` (centres unmarked) [IND_CC-520, 2-Chloro-N-cyclopropyl-N-[6-[8-[(2,6-difluoro-phenyl)-methyl]-2,8-diazaspiro[4.5]decane-2-carbonyl]-2,3-dihydro-1H-inden-1-yl]-benzamide], which inhibition at 10 µM is on record?
A: 72%

Q: With `O=C(c1ccc2c(c1)C(N(C(=O)c1ccccc1Cl)C1CC1)CC2)N1CCC2(CCN(Cc3ccc(F)c(F)c3)CC2)C1` (centres unmarked) [IND_CC-521, 2-Chloro-N-cyclopropyl-N-[6-[8-[(3,4-difluoro-phenyl)-methyl]-2,8-diazaspiro[4.5]decane-2-carbonyl]-2,3-dihydro-1H-inden-1-yl]-benzamide] as the molecule, how does the inhibition at 10 µM read?
A: 66%

Q: How did the inhibition at 10 µM turn out when `O=C(c1ccc2c(c1)C(N(C(=O)c1ccccc1Cl)C1CC1)CC2)N1CCC2(CCN(Cc3cc(F)ccc3F)CC2)C1` (centres unmarked) [IND_CC-522, 2-Chloro-N-cyclopropyl-N-[6-[8-[(2,5-difluoro-phenyl)-methyl]-2,8-diazaspiro[4.5]decane-2-carbonyl]-2,3-dihydro-1H-inden-1-yl]-benzamide] was run?
A: 55%

Q: How did the inhibition at 10 µM turn out when `O=C(c1ccc2c(c1)C(N(C(=O)c1ccccc1Cl)C1CC1)CC2)N1CCC2(CCN(Cc3ccc(F)cc3F)CC2)C1` (centres unmarked) [IND_CC-523, 2-Chloro-N-cyclopropyl-N-[6-[8-[(2,4-difluoro-phenyl)-methyl]-2,8-diazaspiro[4.5]decane-2-carbonyl]-2,3-dihydro-1H-inden-1-yl]-benzamide] was run?
A: 68%

Q: With `COc1ccc(CN2CCC3(CC2)CCN(C(=O)c2ccc4c(c2)C(N(C(=O)c2ccccc2Cl)C2CC2)CC4)C3)cc1F` (centres unmarked) [IND_CC-524, 2-Chloro-N-cyclopropyl-N-[6-[8-[(3-fluoro-4-methoxy-phenyl)-methyl]-2,8-diazaspiro[4.5]decane-2-carbonyl]-2,3-dihydro-1H-inden-1-yl]-benzamide] as the molecule, how does the inhibition at 10 µM read?
A: 62%

Q: `COc1cccc(F)c1CN1CCC2(CC1)CCN(C(=O)c1ccc3c(c1)C(N(C(=O)c1ccccc1Cl)C1CC1)CC3)C2` (centres unmarked) [IND_CC-525, 2-Chloro-N-cyclopropyl-N-[6-[8-[(2-fluoro-6-methoxy-phenyl)-methyl]-2,8-diazaspiro[4.5]decane-2-carbonyl]-2,3-dihydro-1H-inden-1-yl]-benzamide] was tested. Which inhibition at 10 µM did it give?
A: 62%

Q: With `Cc1nc[nH]c1CN1CCC2(CC1)CCN(C(=O)c1ccc3c(c1)C(NC(=O)c1ccccc1Cl)CC3)CC2` (centres unmarked) [IND_CC-527, 2-Chloro-N-[6-[9-[(5-methyl-3H-imidazol-4-yl)-methyl]-3,9-diazaspiro[5.5]undecane-3-carbonyl]-2,3-dihydro-1H-inden-1-yl]-benzamide] as the molecule, how does the inhibition at 10 µM read?
A: 98%

Q: How did the inhibition at 10 µM turn out when `O=C(NC1CCc2ccc(C(=O)N3CCC4(CCN(Cc5ccc(F)cc5Cl)CC4)CC3)cc21)c1ccccc1Cl` (centres unmarked) [IND_CC-529, 2-Chloro-N-[6-[9-[(2-chloro-4-fluoro-phenyl)-methyl]-3,9-diazaspiro[5.5]undecane-3-carbonyl]-2,3-dihydro-1H-inden-1-yl]-benzamide] was run?
A: 104%

Q: Which inhibition at 10 µM does the source give for `O=C(NC1CCc2ccc(C(=O)N3CCC4(CCN(Cc5c(F)cccc5Cl)CC4)CC3)cc21)c1ccccc1Cl` (centres unmarked) [IND_CC-530, 2-Chloro-N-[6-[9-[(2-chloro-6-fluoro-phenyl)-methyl]-3,9-diazaspiro[5.5]undecane-3-carbonyl]-2,3-dihydro-1H-inden-1-yl]-benzamide] here?
A: 96%

Q: For `Cc1c(CN2CCC3(CC2)CCN(C(=O)c2ccc4c(c2)C(NC(=O)c2ccccc2Cl)CC4)CC3)cnn1C` (centres unmarked) [IND_CC-531, 2-Chloro-N-[6-[9-[(1,5-dimethyl-1H-pyrazol-4-yl)-methyl]-3,9-diazaspiro[5.5]undecane-3-carbonyl]-2,3-dihydro-1H-inden-1-yl]-benzamide], which inhibition at 10 µM is on record?
A: 81%

Q: With `Cc1noc(C)c1CN1CCC2(CC1)CCN(C(=O)c1ccc3c(c1)C(NC(=O)c1ccccc1Cl)CC3)CC2` (centres unmarked) [IND_CC-532, 2-Chloro-N-[6-[9-[(3,5-dimethyl-isoxazol-4-yl)-methyl]-3,9-diazaspiro[5.5]undecane-3-carbonyl]-2,3-dihydro-1H-inden-1-yl]-benzamide] as the molecule, how does the inhibition at 10 µM read?
A: 62%

Q: For `N#Cc1ccc(CN2CCC3(CC2)CCN(C(=O)c2ccc4c(c2)C(NC(=O)c2ccccc2Cl)CC4)CC3)cc1` (centres unmarked) [IND_CC-533, 2-Chloro-N-[6-[9-[(4-cyano-phenyl)-methyl]-3,9-diazaspiro[5.5]undecane-3-carbonyl]-2,3-dihydro-1H-inden-1-yl]-benzamide], which inhibition at 10 µM is on record?
A: 74%

Q: How did the inhibition at 10 µM turn out when `N#Cc1cccc(CN2CCC3(CC2)CCN(C(=O)c2ccc4c(c2)C(NC(=O)c2ccccc2Cl)CC4)CC3)c1` (centres unmarked) [IND_CC-534, 2-Chloro-N-[6-[9-[(3-cyano-phenyl)-methyl]-3,9-diazaspiro[5.5]undecane-3-carbonyl]-2,3-dihydro-1H-inden-1-yl]-benzamide] was run?
A: 102%

Q: `Cn1cncc1CN1CCC2(CC1)CCN(C(=O)c1ccc3c(c1)C(N(C(=O)c1ccccc1Cl)C1CC1)CC3)C2` (centres unmarked) [IND_CC-536, 2-Chloro-N-cyclopropyl-N-[6-[8-[(3-methyl-3H-imidazol-4-yl)-methyl]-2,8-diazaspiro[4.5]decane-2-carbonyl]-2,3-dihydro-1H-inden-1-yl]-benzamide] was tested. Which inhibition at 10 µM did it give?
A: 54%

Q: `O=C(c1ccc2c(c1)C(N(C(=O)c1ccccc1Cl)C1CC1)CC2)N1CCC2(CCN(Cc3ccc(F)cc3Cl)CC2)C1` (centres unmarked) [IND_CC-537, 2-Chloro-N-[6-[8-[(2-chloro-4-fluoro-phenyl)-methyl]-2,8-diazaspiro[4.5]-decane-2-carbonyl]-2,3-dihydro-1H-inden-1-yl]-N-cyclopropyl-benzamide] was tested. Which inhibition at 10 µM did it give?
A: 62%

Q: With `O=C(c1ccc2c(c1)C(N(C(=O)c1ccccc1Cl)C1CC1)CC2)N1CCC2(CCN(Cc3c(F)cccc3Cl)CC2)C1` (centres unmarked) [IND_CC-538, 2-Chloro-N-[6-[8-[(2-chloro-6-fluoro-phenyl)-methyl]-2,8-diazaspiro[4.5]-decane-2-carbonyl]-2,3-dihydro-1H-inden-1-yl]-N-cyclopropyl-benzamide] as the molecule, how does the inhibition at 10 µM read?
A: 72%
